Entries after “also recorded” stand apart in the source; their conditions may differ.
Key:
[1] = test system: healthy keratinocyte cells (HaCaT); assay: CellTiter-Blue cell viability, HaCaT; type: cell-based; details: Homo sapiens, non-cancerous, 72 hours
Procedure: (§1) The anti-cancer efficacy of exemplary compounds of the application were assessed in vitro against different cancer cell lines. Cell viability was examined following treatment at various concentrations of inhibitor (0.097656-50 μM) using a CellTiter-Blue® cell viability assay. 1×10^4 cells/well were plated in 96-well assay plates in culture medium. All cells were grown in DMEM, IMDM and RPMI-1640 supplemented with 10% fetal bovine serum (FBS). In some instances, FBS was removed for periods ranging from 16-24 hours, and re-introduced with test compound addition. After 24 hrs, test compounds and vehicle controls were added to appropriate wells such that the final volume was 100 μl in each well. The cells were cultured for the desired test exposure period (72 hours) at 37° C. and 5% CO2. The assay plates were removed from 3° C. incubator and 20 μl/well of CellTiter-Blue® Reagent was added. The plates were incubated using standard cell culture conditions for 1-4 hours. Afterwards, the plates were shaken for 10 seconds and florescence was recorded at 560/590 nm using a Cytation 3 spectrophotometer. IC50 values were determined using non-linear regression analysis with GraphPad Prism 6.0 (GraphPad Software Inc.).

UBA5 = molecular target: T1, UBA5 (Homo sapiens, UniProt Q9GZZ9); assay: In vitro transthiolation assay (UFM1-UFC1 conjugate formation); type: biochemical; details: 50 nM UBA5, 3.5 hours pre-incubation, 0 to 1 μM I-1
T1 construct: Constructs of full length human UBA5 (1-404) were cloned into a pET28b(+) vector; His-SUMO (N, cleaved yes); made in house; host or cells: E. coli BL21 (DE3) RILP
T1 sequence (Q9GZZ9 whole entry): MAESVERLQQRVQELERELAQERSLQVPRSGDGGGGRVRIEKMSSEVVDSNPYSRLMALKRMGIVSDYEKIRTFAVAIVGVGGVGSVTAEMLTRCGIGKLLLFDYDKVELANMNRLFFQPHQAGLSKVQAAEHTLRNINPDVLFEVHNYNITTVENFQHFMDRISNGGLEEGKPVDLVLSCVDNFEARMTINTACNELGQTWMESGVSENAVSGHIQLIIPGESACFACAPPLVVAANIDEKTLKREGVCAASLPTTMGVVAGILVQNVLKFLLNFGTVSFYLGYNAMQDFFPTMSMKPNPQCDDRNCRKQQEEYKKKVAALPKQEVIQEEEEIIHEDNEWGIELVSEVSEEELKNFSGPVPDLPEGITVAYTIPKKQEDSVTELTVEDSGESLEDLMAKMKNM
Procedure: UBA5 and test compounds were pre-incubated for a period of 8 hours at 37° C. prior to addition of other assay components. After this period, UFM1, UFC1 and ATP were introduced to initiate the reactions. Final concentrations in the reactions were 250 nM UBA5, 10 μM UFM1, 10 μM UFC1 and 100 μM ATP for total assay volumes of 20 μL, in buffer consisting of 50 mM 4-(2-hydroxyethyl)-1-piperazineethanesulfonic acid (HEPES),), 0.5 mM TCEP, 5 mM MgCl2, at pH 7.4. A final concentration of 10% (v/v) DMSO was present in all reactions. The reactions were allowed to proceed for 1 hour before stopping with 4× Laemmli buffer (Bio-Rad 1610747). Samples were then run on 4-20% non-reducing SDS-PAGE stain-free gels to separate protein conjugates. Gels were subsequently imaged using Stain-free imaging technology (Bio-Rad). Image Lab software was used to quantify the intensity of the UFM1-UFC1 conjugate bands to controls with no inhibitor present and reported as % inhibition values.
I-1 was evaluated as well using differing transthiolation assay conditions, with a reduction in UBA5 concentration to 50 nM and a pre-incubation period of 3.5 hours at 37° C. of UBA5 with I-1. This was followed by a 30 minute reaction time after UFM1, UFC1 and ATP addition. A final concentration of 5% (v/v) DMSO was used.

AR230 = assay: Cell viability, CML AR230; type: cell-based; details: Table 4
Procedure: as §1, with “Inc.). […]” for “Inc.).”

[2] = test system: healthy human lung cells (MRC9); assay: CellTiter-Blue cell viability, MRC9; type: cell-based; details: non-cancerous, 72 hours
Method in brief: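 Cells were seeded at 1×10^4/well, grown 24 h in FBS-supplemented medium, then exposed to compound (0.097656–50 μM) for 72 h at 37° C, 5% CO2. Viability was read by CellTiter-Blue fluorescence (560/590 nm) after 1–4 h reagent incubation, with IC50 derived by non-linear regression.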

BSA, lysozyme, STAT3/5 = assay: 19F NMR screen against Cys-containing proteins; type: binding; details: 100 μM I-1, 2 hours at 37° C.
Procedure: To assess potential reactivity of I-1 against Cys containing proteins, a series of ^19F NMR studies were conducted with BSA, lysozyme, STAT3, and STATS. […] All samples were prepared in 100 mM HEPES pH 7.4, and 100 μM 5-fluoro-Trp, with a final concentration of 10% D20 and 10% DMSO. The samples were incubated for 2 hours at 37° C. prior to data collection. All spectra were normalized and referenced according to the fluorine peak of 5-fluoro-Trp.

[3] = Stability to glutathione, half-life by 19F NMR
LN-18 = assay: Cell viability, glioblastoma LN-18; type: cell-based; details: Homo sapiens, glioblastoma cell line
Procedure: as §1, with “Cell viability was examined following treatment at various concentrations of inhibitor (0.097656-50 μM) using a CellTiter-Blue® cell viability assay.” left out, “All cells were grown in DMEM, IMDM and RPMI-1640 supplemented with 10% fetal bovine serum (FBS).” left out

D425 = assay: Cell viability, medulloblastoma D425; type: cell-based; details: medulloblastoma cell line
Procedure: as §1, with “Inc.). […]” for “Inc.).”

D458 = assay: Cell viability, medulloblastoma D458; type: cell-based; details: medulloblastoma cell line
Procedure: as §1, with “Inc.). […]” for “Inc.).”

in vitro = details: male, mouse
Procedure: The reaction mixture was constituted with 100 mM phosphate buffer, ultra-pure H2O, 5 mM MgCl2 solution, 10 mM NADPH solution and 1 mg/mL S9 fraction. This mixture was then pre-warmed at 37° C. for 5 minutes. […] Aliquots of 50 μL were taken from the reaction solution at 0, 15, 30, 45 and 60 minutes. The aliquoted reaction solutions were stopped by the addition of a mixture of cold methanol and IS (100 nM alprazolam, 200 nM imipramine, 200 nM labetalol and 2 μM ketoprofen). The samples were then centrifuged at 3220 g for 40 minutes. Afterwards, aliquots of 90 μL of the supernatant for each sample was mixed with 90 μL of ultra-pure water and subjected to liquid chromatography tandem mass spectrometry (LC-MS/MS) analysis.
Injection volume was 10 μL.

- increase in T1/2 as compared to Batabulin [3]: greater than 7 fold
- IC50 (LN-18): 4.92 µM
- IC50 (D425): 0.8 µM
- IC50 (D458): 2.2 µM
- half-life at 2 μM (in vitro; s9): 232 h
- microsomal CLint at 2 μM (in vitro; s9): 0.05 µL/min/mg
- Remaining Percentage 0 min (in vitro; s9, 0 h, 2 μM): 100.00%
SMILES: O=S(=O)(c1c(F)c(F)c(F)c(F)c1F)N(Cc1ccc(F)cc1)C1CC1 [Compound I-1, N-cyclopropyl-2,3,4,5,6-pentafluoro-N-(4-fluorobenzyl)benzenesulfonamide]
- IC50 [1]: 12.5 µM
- UFM1-UFC1 conjugate formation (UBA5): no conjugate formation at sub-micromolar concentrations
- IC50 (AR230): 4.1 µM
- IC50 [2]: 25 µM
- reactivity towards Cys-containing proteins (free fluoride release) (BSA, lysozyme, STAT3/5): no significant fluoride release; also recorded: unreactive

— patent US20200277268A1, “PENTAFLUOROPHENYL SULFONAMIDE COMPOUNDS, COMPOSITIONS AND USES THEREOF” (DALRIADA THERAPEUTICS INC., priority 2017, published 2020)
